Values belong to the compound of their own block, whether it stands above or below them.
Legend:
[1] = target: T1, homotetrameric CNGA2 channels (Rattus norvegicus, UniProt Q00195); assay: Concentration-activation relationship of homotetrameric CNGA2 channels, inside-out patches of Xenopus oocytes; format: cell-based
T1 construct: expressed in transfected cells; host or cells: Xenopus laevis oocytes injected with cRNA; inside-out patches
T1 sequence (Q00195 1-664): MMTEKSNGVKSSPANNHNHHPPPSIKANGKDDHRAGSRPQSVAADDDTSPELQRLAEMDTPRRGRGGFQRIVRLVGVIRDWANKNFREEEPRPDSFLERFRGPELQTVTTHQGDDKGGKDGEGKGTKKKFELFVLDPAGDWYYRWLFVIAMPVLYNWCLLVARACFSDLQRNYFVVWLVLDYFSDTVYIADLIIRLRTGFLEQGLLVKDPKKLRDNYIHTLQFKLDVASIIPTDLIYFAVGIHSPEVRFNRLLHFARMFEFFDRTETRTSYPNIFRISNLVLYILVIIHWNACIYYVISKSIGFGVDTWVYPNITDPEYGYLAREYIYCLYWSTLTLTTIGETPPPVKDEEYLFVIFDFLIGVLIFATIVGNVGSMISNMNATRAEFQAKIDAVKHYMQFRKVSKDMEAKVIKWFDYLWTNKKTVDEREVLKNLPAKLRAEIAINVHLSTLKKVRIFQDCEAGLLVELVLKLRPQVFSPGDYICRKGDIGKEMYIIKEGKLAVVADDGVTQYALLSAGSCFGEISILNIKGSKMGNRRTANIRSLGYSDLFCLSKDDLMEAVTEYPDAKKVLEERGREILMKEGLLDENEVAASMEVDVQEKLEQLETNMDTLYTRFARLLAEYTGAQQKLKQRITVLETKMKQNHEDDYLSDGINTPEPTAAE
Procedure: (§1) For each cNMP derivative a complete concentration-activation relationship was recorded, and the data points were fitted with the Hill equation (equation 1) yielding the concentration of half maximum activation (EC50) and the Hill coefficient H (Fig. 1b,c).
(§2) The subunits CNGA2 (accession No. AF126808), CNGA4 (accession No. U12623) and CNGB1b (accession No. AF068572) of rat olfactory channels as well as mouse HCN2 channels (NM008226) were subcloned in front of the T7 promoter of pGEMHEnew. The respective cRNAs were produced by using the mMESSAGE mMACHINE T7 Kit (Ambion, Austin, TX).
(§3) Oocytes at stages IV and V were injected with 50–130 ng of cRNA encoding either CNGA2, CNGA2:CNGA4:CNGB1b (2:1:1 ratio) or HCN2 channels either manually of or by means of an injection robot (RoboInject®). The injected oocytes were incubated at 18 °C for up to 6 days in Barth’s solution containing (in mM) 84 NaCl, 1 KCl, 2.4 NaHCO3, 0.82 MgSO4, 0.41 CaCl2, 0.33 Ca(NO3)2, 7.5 TRIS, cefuroxime (4.0 µg × ml^−1), and penicillin/streptomycin (100 µg × ml^−1), pH 7.4.
(§4) Macroscopic currents were recorded from inside-out patches of the oocytes by using standard patch-clamp techniques. The patch pipettes were pulled from quartz tubing (P-2000, Sutter Instrument, Novato, USA) with an outer and inner diameter of 1.0 and 0.7 mm (VITROCOM, New Jersey, USA). The corresponding pipette resistance was 0.9–2.3 MΩ. The bath and pipette solution contained (in mM): 150 KCl, 1 EGTA, 5 Hepes (pH 7.4 with KOH) for CNG measurements. For HCN measurements the bath solution contained 100 mM KCl, 10 mM EGTA, 10 mM HEPES (pH 7.2) and 120 mM KCl, 10 mM HEPES, and 1.0 mM CaCl2 (pH 7.2) in the pipette. Recording was carried out at room temperature using an Axopatch 200B amplifier (Axon Instruments, Foster City, CA). Electrophysiology was controlled by the Patchmaster-software (HEKA Elektronik Dr. Schulze GmbH, Lambrecht, Germany). The sampling rate was 5 kHz and the filter implemented in the amplifier (4-pole Bessel) was set to 2 kHz. Measurements in HCN2 channels were generally started 3.5 min after patch excision to minimize channel run down during the measurement[14],[27],[70]. The solutions with the ligand concentrations to be tested were applied via a multi-barrel device to the patches with a flow rate of 0.8 to 1.2 ml/min.
(§5) I is the actual current amplitude and Imax the maximum current amplitude at a saturating cNMP concentration specified for each cNMP and channel. EC50 is the cNMP concentration generating the half maximum current and H the Hill coefficient.

[2] = target: T2, heterotetrameric CNGA2:CNGA4:CNGB1b channels (Rattus norvegicus, UniProt A0A8I5ZN27+Q00195+Q64359); assay: Concentration-activation relationship of heterotetrameric CNGA2:CNGA4:CNGB1b channels, inside-out patches of Xenopus oocytes; format: cell-based; conditions: for EC50 / H (Hill coefficient): heterotetrameric CNGA2:CNGA4:CNGB1b channels, mean; for EC50: late current at +10 mV
T2 construct: expressed in transfected cells; host or cells: Xenopus laevis oocytes co-injected with cRNAs (2:1:1); inside-out patches
T2 sequence (Q64359 whole entry, one chain of several): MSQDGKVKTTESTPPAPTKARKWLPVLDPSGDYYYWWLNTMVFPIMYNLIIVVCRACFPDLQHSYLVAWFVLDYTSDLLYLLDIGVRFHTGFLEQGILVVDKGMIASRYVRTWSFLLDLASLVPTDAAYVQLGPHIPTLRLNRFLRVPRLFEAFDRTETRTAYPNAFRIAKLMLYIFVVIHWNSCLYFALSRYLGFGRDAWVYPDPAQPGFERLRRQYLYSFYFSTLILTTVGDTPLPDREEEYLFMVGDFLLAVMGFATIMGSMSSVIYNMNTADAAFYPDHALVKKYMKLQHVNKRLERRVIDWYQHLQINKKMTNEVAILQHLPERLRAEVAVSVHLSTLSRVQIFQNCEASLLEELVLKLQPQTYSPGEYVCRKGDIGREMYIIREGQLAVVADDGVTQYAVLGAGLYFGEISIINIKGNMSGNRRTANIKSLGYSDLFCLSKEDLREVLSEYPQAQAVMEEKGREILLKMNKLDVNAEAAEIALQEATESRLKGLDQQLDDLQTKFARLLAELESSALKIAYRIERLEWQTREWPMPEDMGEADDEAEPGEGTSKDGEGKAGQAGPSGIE
T2 sequence (A0A8I5ZN27 1-858 isoform A0A8I5ZN27-2, one chain of several): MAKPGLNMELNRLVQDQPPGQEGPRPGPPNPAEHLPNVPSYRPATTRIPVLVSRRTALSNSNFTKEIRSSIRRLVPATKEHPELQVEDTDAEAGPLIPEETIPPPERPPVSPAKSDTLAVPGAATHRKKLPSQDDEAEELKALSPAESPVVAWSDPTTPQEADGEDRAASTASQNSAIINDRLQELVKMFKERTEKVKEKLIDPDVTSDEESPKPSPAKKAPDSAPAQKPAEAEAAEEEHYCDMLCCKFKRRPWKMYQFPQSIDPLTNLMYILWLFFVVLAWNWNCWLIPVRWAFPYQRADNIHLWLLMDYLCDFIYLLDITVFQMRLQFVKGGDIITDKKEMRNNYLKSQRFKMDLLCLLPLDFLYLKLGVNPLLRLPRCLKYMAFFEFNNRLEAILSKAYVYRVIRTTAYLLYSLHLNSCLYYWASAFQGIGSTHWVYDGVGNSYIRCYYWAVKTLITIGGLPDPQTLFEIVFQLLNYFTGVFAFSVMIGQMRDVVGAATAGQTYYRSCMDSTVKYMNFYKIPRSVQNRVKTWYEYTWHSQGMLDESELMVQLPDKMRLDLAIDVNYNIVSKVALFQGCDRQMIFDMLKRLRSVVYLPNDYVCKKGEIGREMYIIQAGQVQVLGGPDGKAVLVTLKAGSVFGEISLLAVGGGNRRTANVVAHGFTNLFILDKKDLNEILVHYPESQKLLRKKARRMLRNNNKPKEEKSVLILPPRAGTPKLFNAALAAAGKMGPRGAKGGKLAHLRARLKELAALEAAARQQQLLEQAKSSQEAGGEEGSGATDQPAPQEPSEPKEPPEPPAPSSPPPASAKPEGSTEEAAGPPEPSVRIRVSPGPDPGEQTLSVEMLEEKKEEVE
Procedure: as §1, §2, §3, §4, §5

[3] = homotetrameric CNGA2 channels, late current at +10 mV, mean
[4] = homotetrameric CNGA2 channels, mean

EC50 [1, 3]: 630 nM
H (Hill coefficient) [1, 4]: 2.3
effect at high concentration ([2]; CNGA2:CNGA4:CNGB1b channels, at concentrations > 2 µM): unusual inhibition
EC50 [2]: 290 nM
H (Hill coefficient) [2]: 3.9
SMILES: NCCCCCCCCCCSc1nc2c(N)ncnc2n1C1OC2COP(=O)(O)OC2C1O (centres unmarked) [6A, 8-ADT-cAMP]

EC50 [1, 3]: 60 nM
H (Hill coefficient) [1, 4]: 1.8
EC50 [2]: 300 nM
H (Hill coefficient) [2]: 1.6
SMILES: NCCCCCCCCCCSc1nc2c(=O)[nH]c(N)nc2n1C1OC2COP(=O)(O)OC2C1O (centres unmarked) [6G, 8-ADT-cGMP]

EC50 [1, 3]: 46200 nM
H (Hill coefficient) [1, 4]: 2.3
EC50 [2]: 7100 nM
H (Hill coefficient) [2]: 2.2
SMILES: CC(=O)NCCOCCOCCC(=O)NCCSc1nc2c(N)ncnc2n1C1OC2COP(=O)(O)OC2C1O (centres unmarked) [9A, 8-(Ac)APET-cAMP]

EC50 [1, 3]: 520 nM
H (Hill coefficient) [1, 4]: 2.3
EC50 [2]: 1100 nM
H (Hill coefficient) [2]: 2.0
SMILES: CC(=O)NCCOCCOCCC(=O)NCCSc1nc2c(=O)[nH]c(N)nc2n1C1OC2COP(=O)(O)OC2C1O (centres unmarked) [9G, 8-(Ac)APET-cGMP]

EC50 [1, 3]: 340 nM
H (Hill coefficient) [1, 4]: 2.6
EC50 [2]: 630 nM
H (Hill coefficient) [2]: 1.9
SMILES: CC(=O)NCC(=O)NCCSc1nc2c(=O)[nH]c(N)nc2n1C1OC2COP(=O)(O)OC2C1O (centres unmarked) [10G, 8-(Ac)AGET-cGMP]

The next lines start with the compound.

SMILES: CC(=O)NCCCCCCCCCCSc1nc2c(=O)[nH]c(N)nc2n1C1OC2COP(=O)(O)OC2C1O (centres unmarked) [7G, 8-(Ac)ADT-cGMP]
EC50 [1, 3]: 50 nM
H (Hill coefficient) [1, 4]: 2.2
EC50 [2]: 140 nM
H (Hill coefficient) [2]: 1.9

SMILES: CC(=O)NCCOCCOCCSc1nc2c(=O)[nH]c(N)nc2n1C1OC2COP(=O)(O)OC2C1O (centres unmarked) [8G, 8-(Ac)APT-cGMP]
EC50 [1, 3]: 550 nM
H (Hill coefficient) [1, 4]: 2.7
EC50 [2]: 1100 nM
H (Hill coefficient) [2]: 1.6

SMILES: CC(=O)NCC(=O)NCC(=O)NCCSc1nc2c(N)ncnc2n1C1OC2COP(=O)(O)OC2C1O (centres unmarked) [11A, 8-(Ac)AGGET-cAMP]
EC50 ([1]; CNGA2 channels, numeric mean values of box plots (Fig. 2a,b, Fig. 3) and text): 29400 nM
EC50 [1, 3]: 29400 nM
H (Hill coefficient) [1, 4]: 1.9
EC50 [2]: 5100 nM
H (Hill coefficient) [2]: 2.5

SMILES: CC(=O)NCC(=O)NCC(=O)NCCSc1nc2c(=O)[nH]c(N)nc2n1C1OC2COP(=O)(O)OC2C1O (centres unmarked) [11G, 8-(Ac)AGGET-cGMP]
EC50 [1, 3]: 330 nM
H (Hill coefficient) [1, 4]: 2.4
EC50 [2]: 1000 nM
H (Hill coefficient) [2]: 1.7
